The compounds below were run against GluA1o-γ8 (GRIA1o-CACNG8 fusion construct) (Homo sapiens (Human), UniProt P42261+Q8WXS5) (assay: Calcium flux assay (FLIPR), inhibition of TARP γ8 dependent AMPA receptor activity). Settings: GluA1o-γ8 (GRIA1o-CACNG8 fusion) in HEK293 cells, calcium flux after 15 μM glutamate.
Assay type: cell-based
Summary of the method: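 Glutamate (15 μM) was added to a stable HEK293 line carrying the GluA1o–γ8 fusion, which had been preincubated with compound and calcium dye in HEPES buffer, pH 7.4. Normalized FLIPR fluorescence (no compound vs 10 μM CP465022) was fitted with four parameters; pIC50 is the midpoint's negative log.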

Chain of GluA1o-γ8 (GRIA1o-CACNG8 fusion construct) (P42261 other isoform, or with tags, fused parts or gaps): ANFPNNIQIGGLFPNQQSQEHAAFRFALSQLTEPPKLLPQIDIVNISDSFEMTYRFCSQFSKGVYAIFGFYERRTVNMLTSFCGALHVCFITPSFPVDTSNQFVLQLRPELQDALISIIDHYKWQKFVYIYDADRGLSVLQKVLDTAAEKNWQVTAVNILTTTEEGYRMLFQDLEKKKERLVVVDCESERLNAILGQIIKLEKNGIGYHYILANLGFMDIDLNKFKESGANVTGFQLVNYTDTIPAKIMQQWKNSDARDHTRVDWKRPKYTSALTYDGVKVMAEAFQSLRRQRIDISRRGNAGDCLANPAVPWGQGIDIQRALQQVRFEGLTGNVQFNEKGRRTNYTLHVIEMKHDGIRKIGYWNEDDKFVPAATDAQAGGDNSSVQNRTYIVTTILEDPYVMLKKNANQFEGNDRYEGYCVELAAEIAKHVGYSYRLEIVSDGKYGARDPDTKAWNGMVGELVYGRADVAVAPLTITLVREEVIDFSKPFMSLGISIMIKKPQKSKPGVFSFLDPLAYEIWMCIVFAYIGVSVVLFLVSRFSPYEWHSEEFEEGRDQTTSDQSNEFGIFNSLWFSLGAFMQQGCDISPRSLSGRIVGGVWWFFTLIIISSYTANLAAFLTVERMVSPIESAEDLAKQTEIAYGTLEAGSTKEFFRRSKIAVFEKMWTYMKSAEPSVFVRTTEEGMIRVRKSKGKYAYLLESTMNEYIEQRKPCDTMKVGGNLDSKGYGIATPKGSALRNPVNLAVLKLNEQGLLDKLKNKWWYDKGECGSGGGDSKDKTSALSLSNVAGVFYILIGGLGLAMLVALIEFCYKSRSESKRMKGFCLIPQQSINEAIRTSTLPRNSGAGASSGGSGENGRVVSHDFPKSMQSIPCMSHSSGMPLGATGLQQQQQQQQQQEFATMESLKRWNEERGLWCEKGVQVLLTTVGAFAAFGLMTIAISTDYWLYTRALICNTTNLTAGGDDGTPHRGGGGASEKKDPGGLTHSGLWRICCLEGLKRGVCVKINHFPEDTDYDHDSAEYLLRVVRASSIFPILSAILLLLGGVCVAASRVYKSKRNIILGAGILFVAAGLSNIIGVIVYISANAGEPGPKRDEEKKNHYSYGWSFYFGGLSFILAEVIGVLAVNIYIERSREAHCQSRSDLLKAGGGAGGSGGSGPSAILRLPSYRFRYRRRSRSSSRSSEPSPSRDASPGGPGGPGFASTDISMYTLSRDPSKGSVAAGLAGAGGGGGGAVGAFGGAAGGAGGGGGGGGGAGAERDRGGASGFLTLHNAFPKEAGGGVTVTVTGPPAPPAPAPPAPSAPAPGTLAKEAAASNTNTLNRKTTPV

Row | IC50 [nM] | SMILES
1 | 501 | O=C(NC1CC1)c1nc2ccc(C(F)(F)F)nc2n1-c1ccc2[nH]ncc2c1 [Example 128, N-Cyclopropyl-3-(1H-indazol-5-yl)-5-(trifluoromethyl)imidazo[4,5-b]pyridine-2-carboxamide]
2 | 15.8 | COc1nc2ccc(C(F)(F)F)nc2n1-c1ccc2[nH]ncc2c1 [Example 129, 3-(1H-Indazol-5-yl)-2-methoxy-5-(trifluoromethyl)imidazo[4,5-b]pyridine]
3 | 100 | CCNc1nc2ccc(C(F)(F)F)nc2n1-c1ccc2[nH]ncc2c1 [Example 130, N-Ethyl-3-(1H-indazol-5-yl)-5-(trifluoromethyl)imidazo[4,5-b]pyridin-2-amine]
4 | 158 | FC(F)(F)c1ccc2nc(NC3CCCCC3)n(-c3ccc4[nH]ncc4c3)c2n1 [Example 131, N-Cyclohexyl-3-(1H-indazol-5-yl)-5-(trifluoromethyl)imidazo[4,5-b]pyridin-2-amine]
5 | 0.0631 | O=c1[nH]c2ccc(-n3c(C4CCC4)nc4ccc(C(F)(F)F)nc43)cc2s1 [Example 132, 6-[2-Cyclobutyl-5-(trifluoromethyl)imidazo[4,5-b]pyridin-3-yl]-3H-1,3-benzothiazol-2-one]
6 | 1 | Cc1cc(N2CCOCC2)c2nc(C3CCC3)n(-c3ccc4[nH]c(=O)sc4c3)c2n1 [Example 133, 6-(2-Cyclobutyl-5-methyl-7-morpholino-imidazo[4,5-b]pyridin-3-yl)-3H-1,3-benzothiazol-2-one]
7 | 0.0794 | O=c1[nH]c2ccc(-n3c(C(F)(F)F)nc4ccc(C(F)(F)F)nc43)cc2s1 [Example 134, 6-[2,5-Bis(trifluoromethyl)imidazo[4,5-b]pyridin-3-yl]-3H-1,3-benzothiazol-2-one]
8 | 79.4 | Cc1ccnc2c1nc(C1CC1)n2-c1ccc2[nH]c(=O)sc2c1 [Example 135, 6-(2-Cyclopropyl-7-methyl-imidazo[4,5-b]pyridin-3-yl)-3H-1,3-benzothiazol-2-one]
9 | 5.01 | Cc1cc(N2CCOCC2)c2nc(C3CC3)n(-c3ccc4[nH]c(=O)sc4c3)c2n1 [Example 136, 6-(2-Cyclopropyl-5-methyl-7-morpholino-imidazo[4,5-b]pyridin-3-yl)-3H-1,3-benzothiazol-2-one]
10 | 0.501 | Cc1cc(Cl)nc2c1nc(C1CCC1)n2-c1ccc2[nH]ncc2c1 [Example 137, 5-Chloro-2-cyclobutyl-3-(1H-indazol-5-yl)-7-methyl-imidazo[4,5-b]pyridine]
11 | 0.02 | FC(F)(F)c1ccc2nc(C3CCC3)n(-c3cc(Br)c4[nH]ncc4c3)c2n1 [Example 138, 3-(7-Bromo-1H-indazol-5-yl)-2-cyclobutyl-5-(trifluoromethyl)imidazo[4,5-b]pyridine]
12 | 39.8 | Cc1ccc2nc(C(F)(F)F)n(-c3ccc4c(c3)CC(=O)N4)c2n1 [Example 139, 5-[5-Methyl-2-(trifluoromethyl)imidazo[4,5-b]pyridin-3-yl]indolin-2-one]
13 | 2.51 | O=C1Cc2cc(-n3c(C4CC4)nc4ccc(C(F)F)nc43)ccc2N1 [Example 140, 5-[2-Cyclopropyl-5-(difluoromethyl)imidazo[4,5-b]pyridin-3-yl]indolin-2-one]
14 | 1.26 | CC(C)c1nc2ccc(C(F)F)nc2n1-c1ccc2c(c1)CC(=O)N2 [Example 141, 5-[5-(Difluoromethyl)-2-isopropyl-imidazo[4,5-b]pyridin-3-yl]indolin-2-one]
15 | 1.58 | Cc1ccc2nc(C(F)(F)F)n(-c3ccc4[nH]c(=O)sc4c3)c2n1 [Example 142, 6-[5-Methyl-2-(trifluoromethyl)imidazo[4,5-b]pyridin-3-yl]-3H-1,3-benzothiazol-2-one]
16 | 1 | Cc1ccc2nc(C3CC3)n(-c3ccc4[nH]c(=O)sc4c3)c2n1 [Example 143, 6-(2-Cyclopropyl-5-methyl-imidazo[4,5-b]pyridin-3-yl)-3H-1,3-benzothiazol-2-one]

Row | IC50 [nM] | SMILES
17 | 1.58 | Cc1ccc2nc(C(C)C)n(-c3ccc4[nH]c(=O)sc4c3)c2n1 [Example 144, 6-(2-Isopropyl-5-methyl-imidazo[4,5-b]pyridin-3-yl)-3H-1,3-benzothiazol-2-one]
18 | 0.251 | Cc1ccc2nc(C3CCC3)n(-c3ccc4[nH]c(=O)sc4c3)c2n1 [Example 145, 6-(2-Cyclobutyl-5-methyl-imidazo[4,5-b]pyridin-3-yl)-3H-1,3-benzothiazol-2-one]
19 | 39.8 | Cc1ccc2nc(C(C)(F)F)n(-c3ccc4c(c3)CC(=O)N4)c2n1 [Example 146, 5-[2-(1,1-Difluoroethyl)-5-methyl-imidazo[4,5-b]pyridin-3-yl]indolin-2-one]
20 | 10 | Cc1ccc2nc(C3CC3)n(-c3ccc4[nH]ncc4c3)c2n1 [Example 147, 2-Cyclopropyl-3-(1H-indazol-5-yl)-5-methyl-imidazo[4,5-b]pyridine]
21 | 7.94 | Cc1ccc2nc(C(C)C)n(-c3ccc4[nH]ncc4c3)c2n1 [Example 148, 3-(1H-Indazol-5-yl)-2-isopropyl-5-methyl-imidazo[4,5-b]pyridine]
22 | 0.794 | Cc1ccc2nc(C3CCC3)n(-c3ccc4[nH]ncc4c3)c2n1 [Example 149, 2-Cyclobutyl-3-(1H-indazol-5-yl)-5-methyl-imidazo[4,5-b]pyridine]
23 | 1.58 | Cc1ccc2nc(C(C)(F)F)n(-c3ccc4[nH]c(=O)sc4c3)c2n1 [Example 150, 6-[2-(1,1-Difluoroethyl)-5-methyl-imidazo[4,5-b]pyridin-3-yl]-3H-1,3-benzothiazol-2-one]
24 | 12.6 | Cc1ccc2nc(C(F)(F)F)n(-c3ccc4[nH]ncc4c3)c2n1 [Example 151, 3-(1H-Indazol-5-yl)-5-methyl-2-(trifluoromethyl)imidazo[4,5-b]pyridine]
25 | 39.8 | Cc1ccc2nc(C(C)(F)F)n(-c3ccc4[nH]ncc4c3)c2n1 [Example 152, 2-(1,1-Difluoroethyl)-3-(1H-indazol-5-yl)-5-methyl-imidazo[4,5-b]pyridine]
26 | 2.51 | O=C1Cc2cc(-n3c(C(F)(F)F)nc4ccc(C(F)F)nc43)ccc2N1 [Example 153, 5-[5-(Difluoromethyl)-2-(trifluoromethyl)imidazo[4,5-b]pyridin-3-yl]indolin-2-one]
27 | 5.01 | CC(F)(F)c1nc2ccc(C(F)F)nc2n1-c1ccc2c(c1)CC(=O)N2 [Example 154, 5-[2-(1-Difluoroethyl)-5-(difluoromethyl)imidazo[4,5-b]pyridin-3-yl]indolin-2-one]
28 | 39.8 | CSc1ccc2nc(-c3ccc(F)cc3)n(-c3ccc4[nH]ccc4c3)c2n1 [Example 155, 2-(4-Fluorophenyl)-3-(1H-indol-5-yl)-5-methylsulfanyl-imidazo[4,5-b]pyridine]
29 | 25.1 | Oc1ccc2nc(-c3ccccc3)n(-c3ccc4[nH]ncc4c3)c2n1 [Example 156, 3-(1H-Indazol-5-yl)-2-phenyl-imidazo[4,5-b]pyridin-5-ol]
30 | 12.6 | COc1ccc2nc(C3CC3)n(-c3ccc4[nH]ncc4c3)c2n1 [Example 157, 2-Cyclopropyl-3-(1H-indazol-5-yl)-5-methoxy-imidazo[4,5-b]pyridine]
31 | 31.6 | CCc1nc2ccc(C(F)(F)F)nc2n1-c1ccc2[nH]c(=O)oc2c1 [Example 158, 6-[2-Ethyl-5-(trifluoromethyl)imidazo[4,5-b]pyridin-3-yl]-3H-1,3-benzoxazol-2-one]

Source: patent publication US11312712B2, “Azabenzimidazoles and their use as AMPA receptor modulators” (Janssen Pharmaceutica NV, priority 2015, dated 2022)
